This passage reports IC50 results from patent US6077869A, “Aryl phenylhydrazides as selective COX-2 inhibitors for treatment of inflammation” (Ortho-McNeil Pharmaceutical, Inc., priority 1999, dated 2000).

The structures appear in SMILES notation.

The target in one assay is cyclooxygenase 2 (COX-2). As to the kind of experiment: Procedure I: ability of the compounds to inhibit cyclooxygenase 2 (6217/6218). The note with it: Wh Cell. Format: biochemical, Sheep.
A further assay has as its target cyclooxygenase 1 (COX-1). As to the kind of experiment: Procedure II: cyclooxygenase 1 activity (6226). The note with it: RBL-1 cell homogenate supernatant. Format: biochemical, Rat. As to the method: [Worded in the source for another target; this target is reported under the same test.] Rat basophilic leukemia cells (RBL-1; 5×10^7 viable cells/mL) were disrupted by homogenization on ice (four 20 sec bursts) with a Brinkman polytron. […] The pellet was discarded and the supernatant was saved as the source of enzymes. The supernatant was pre-incubated for five minutes at 37° C. in the presence of 2 mM of CaCl2 and compound or vehicle (1% DMSO). The conversion of AA into products by CO and LO was initiated by adding 10 μL (50 μCi) of 1-^14 C-AA to each tube and incubated at 37° C. for 20 minutes. The reaction was stopped by adjusting the pH of each sample to 3 to 3.5 with 2 M formic acid. Samples were extracted with three volumes of chloroform to isolate the products of 5-LO formed during the reaction. Fractions were dried under nitrogen, then resuspended in 40 μL of chloroform and spotted onto silica gel HL plates.
The plates were developed in A-9 solvent. The dried plates were analyzed using a Bioscan Imaging TLC scanner to determine the percentage of radiolabelled AA converted to 5-HETE (LO product) in each sample. The percentage of inhibition was calculated by:
[1-(5-HETE test)]/5-HETE control×100=% inhibition The IC50 was determined using a curve fit in Cricket Graph (Computer Associated), which provided the equation of the regressed line used in the calculation.

For the compound `COc1ccc(NNC(=O)c2ccccc2)cc1` [Example 12], the IC50 at cyclooxygenase 2 (COX-2) was 0.18 µM; at cyclooxygenase 1 (COX-1), > 10 µM.

As to `COc1ccc(C(=O)NNc2ccc(Cl)cc2)cc1` [Example 9], the IC50 against cyclooxygenase 2 (COX-2) was 0.47 µM; on cyclooxygenase 1 (COX-1), > 10 µM.

In the case of `O=C(NNc1ccccc1)c1ccccc1` [Example 2], the figures for the IC50 on cyclooxygenase 2 (COX-2) and on cyclooxygenase 1 (COX-1) were 10 µM and > 10 µM, respectively.

Take `O=C(NNc1ccc(Cl)cc1)c1ccccc1` [Example 5]: the IC50 is 0.53 µM against cyclooxygenase 2 (COX-2) and > 10 µM at cyclooxygenase 1 (COX-1).

In the case of `O=C(NNc1ccccc1)c1ccc(Cl)cc1` [Example 3], the IC50 against cyclooxygenase 2 (COX-2) was 0.33 µM; against cyclooxygenase 1 (COX-1), > 10 µM.

In the case of `Cc1ccc(NNC(=O)c2ccccc2)cc1` [Example 4], the results for the IC50 against cyclooxygenase 2 (COX-2) and at cyclooxygenase 1 (COX-1) were 0.33 µM and > 10 µM, respectively.

Regarding `CS(=O)(=O)c1ccc(NNC(=O)c2ccc(Cl)cc2)cc1` [Example 8], the half-maximal inhibitory concentration (IC50) at cyclooxygenase 2 (COX-2) and against cyclooxygenase 1 (COX-1) was > 10 µM in each case.

For the compound `CS(=O)(=O)c1ccc(NNC(=O)c2ccccc2)cc1` [Example 6], the IC50 against cyclooxygenase 2 (COX-2) and at cyclooxygenase 1 (COX-1) was > 10 µM throughout.

In the case of `O=C(NNc1ccc(Cl)cc1)c1ccc(Cl)cc1` [Example 1], the values for the IC50 against cyclooxygenase 2 (COX-2) and on cyclooxygenase 1 (COX-1) were 0.34 µM and > 10 µM, respectively.

In the case of `COc1ccc(NNC(=O)c2ccc(Cl)cc2)cc1` [Example 10], the IC50 on cyclooxygenase 2 (COX-2) stood at 0.13 µM.

As to `COc1ccc(C(=O)NNc2ccccc2)cc1` [Example 11], the IC50 against cyclooxygenase 2 (COX-2) and against cyclooxygenase 1 (COX-1) was > 10 µM throughout.

As to `Cc1ccc(NNC(=O)c2ccc(Cl)cc2)cc1` [Example 7], the values for the IC50 on cyclooxygenase 2 (COX-2) and at cyclooxygenase 1 (COX-1) were 0.01 µM and > 10 µM, respectively.
